Reference: US20070099828A1, “BIOMARKERS FOR THE EFFICACY OF CALCITONIN AND PARATHYROID HORMONE TREATMENT” (priority 2003, published 2007)
Several values for one entry are separate records, joined by “and”; a condition that tells them apart may be missing. Identical values can stand only once. Ends that are not written are not given here.

Key:
Haematology = assay type: in vivo, cynomolgus monkeys (Macaca fascicularis)
Text: Blood sampling. […] Blood samples were taken from a peripheral vein.

Urinary analysis = details: males

Sequence: SVSEIQLLHDKGKHLASQERVEWLRKKLQDVHTA [PTS893, Leu8, Asp10, Lys11, Ala16, Gln18, Thr33, Ala34 human PTH 1-34 [hPTH(1-34)]]
- B (Haematology; females, d 7): 0.06 G/L and 0.04 G/L
- L (Haematology; females, d 7): 6.29 G/L and 5.87 G/L
- MCH (Haematology; females, d 7): 18.9 pg and 19 pg
- MCV (Haematology; females, d 7): 67 fL and 68 fL
- PCV (Haematology; females, d 7): 0.41 l/l and 0.43 l/l
- PLAT (Haematology; females, d 7): 525 G/L and 382 G/L
- RBC (Haematology; females, d 7): 6.2 T/l and 6.4 T/l
- WBC (Haematology; females, d 7): 18.4 G/l and 12.3 G/l
- B (Haematology; females, d 13): 0.03 G/L and 0.04 G/L
- E (Haematology; females, d 13): 0.21 G/L and 0.29 G/L
- HB (Haematology; females, d 13): 11.3 g/dL
- L (Haematology; females, d 13): 5.81 G/L and 5.21 G/L
- MCH (Haematology; females, d 13): 19.3 pg and 19.2 pg
- MCV (Haematology; females, d 13): 67 fL and 66 fL
- PCV (Haematology; females, d 13): 0.4 l/l and 0.39 l/l
- PLAT (Haematology; females, d 13): 496 G/L and 309 G/L
- RBC (Haematology; females, d 13): 5.9 T/l
- WBC (Haematology; females, d 13): 13.2 G/l and 10.1 G/l
- L (Haematology; females, d −8 (before dosing)): 3.92 G/L and 4.4 G/L
- MCH (Haematology; females, d −8 (before dosing)): 19.3 pg
- MCV (Haematology; females, d −8 (before dosing)): 63 fL and 64 fL
- PCV (Haematology; females, d −8 (before dosing)): 0.44 l/l and 0.43 l/l
- RBC (Haematology; females, d −8 (before dosing)): 6.9 T/l and 6.7 T/l
- WBC (Haematology; females, d −8 (before dosing)): 10.1 G/l and 14.3 G/l
- monocyte count (Haematology; females, d −8 (before dosing)): 0.8 G/l and 0.54 G/l
- B (Haematology; males, d 7): 0.02 G/l and 0.03 G/l
- HB (Haematology; males, d 7): 11.3 g/dL and 11.9 g/dL
- L (Haematology; males, d 7): 5.91 G/l and 5.30 G/l
- MCH (Haematology; males, d 7): 17.7 pg and 20.2 pg
- MCHC (Haematology; males, d 7): 29.3 g/dL and 30.2 g/dL
- MCV (Haematology; males, d 7): 60 fL and 67 fL
- PCV (Haematology; males, d 7): 0.38 l/l and 0.40 l/l
- PLAT (Haematology; males, d 7): 456 G/l and 589 G/l
- RBC (Haematology; males, d 7): 6.4 T/l and 5.9 T/l
- WBC (Haematology; males, d 7): 8.4 G/l and 15.0 G/l
- B (Haematology; males, d 13): 0.04 G/l and 0.03 G/l
- HB (Haematology; males, d 13): 11.7 g/dL and 11.8 g/dL
- L (Haematology; males, d 13): 5.37 G/l and 4.86 G/l
- M (Haematology; males, d 13): 0.27 G/l and 0.46 G/l
- MCH (Haematology; males, d 13): 17.3 pg and 20.3 pg
- MCHC (Haematology; males, d 13): 27.5 g/dL and 29.2 g/dL
- MCV (Haematology; males, d 13): 63 fL and 70 fL
- PCV (Haematology; males, d 13): 0.43 l/l and 0.41 l/l
- PLAT (Haematology; males, d 13): 330 G/l and 452 G/l
- RBC (Haematology; males, d 13): 6.8 T/l and 5.8 T/l
- WBC (Haematology; males, d 13): 8.8 G/l and 11.9 G/l
- HB (Haematology; males, d −6 (before dosing)): 13.6 g/dL and 13.2 g/dL
- L (Haematology; males, d −6 (before dosing)): 5.07 G/l and 3.99 G/l
- MCH (Haematology; males, d −6 (before dosing)): 18.0 pg and 20.4 pg
- MCHC (Haematology; males, d −6 (before dosing)): 31.5 g/dL and 33.1 g/dL
- MCV (Haematology; males, d −6 (before dosing)): 57 fL and 62 fL
- PCV (Haematology; males, d −6 (before dosing)): 0.43 l/l and 0.40 l/l
- PLAT (Haematology; males, d −6 (before dosing)): 325 G/l and 459 G/l
- RBC (Haematology; males, d −6 (before dosing)): 7.6 T/l and 6.5 T/l
- WBC (Haematology; males, d −6 (before dosing)): 10.4 G/l and 9.1 G/l
- Ca2+ (urine) (Urinary analysis; day 13): 7.55 mmol/L and 13.10 mmol/L
- I.PHOS (urine) (Urinary analysis; day 13): 0.10 mmol/L and 0.17 mmol/L
- K+ (urine) (Urinary analysis; day 13): 107 mmol/L and 69 mmol/L
- LDH (urine) (Urinary analysis; day 13): 14.0 IU/L and 19.0 IU/L
- Mg2+ (urine) (Urinary analysis; day 13): 8.70 mmol/L and 5.25 mmol/L
- NAG (urine) (Urinary analysis; day 13): 2.9 IU/l and 2.6 IU/l
- CREAT (urine) (Urinary analysis; day −5 (before dosing)): 16160 µmol/L and 16120 µmol/L
- CREAT (urine) (Urinary analysis; day −6 (before dosing)): 16160 µmol/L and 9940 µmol/L
- Ca2+ (urine) (Urinary analysis; day −6 (before dosing)): 5.10 mmol/L and 3.50 mmol/L
- K+ (urine) (Urinary analysis; day −6 (before dosing)): 86 mmol/L and 125 mmol/L
